According to paper PMC6651170, “New HSV-1 Anti-Viral 1′-Homocarbocyclic Nucleoside Analogs with an Optically Active Substituted Bicyclo[2.2.1]Heptane Fragment as a Glycoside Moiety” (Molecules, 2019):
Like-named read-outs stand apart in the source and are kept apart here.

What was measured:
[1] = test system: herpes simplex virus type 1 (HSV-1); experiment: microbe, parasite or virus in culture; assay type: cell-based; conditions: for IC50: Human alphaherpesvirus 1, Vero, 72 h, read-out: IC50 Herpes Simplex Virus Type 1
[2] = in vitro; conditions: African green monkey
[3] = in vitro; conditions: dog
[4] = test system: Enterovirus 71; experiment: microbe, parasite or virus in culture; assay type: cell-based; conditions: Enterovirus A, read-out: IC50 Enterovirus 71
[5] = in vitro
[6] = in vitro; remark: listed apart in the source
[7] = test system: Yellow Fever Virus; experiment: microbe, parasite or virus in culture; assay type: cell-based; conditions: Yellow fever virus, read-out: IC50 Yellow Fever Virus
[8] = test system: human adenovirus type 5 (AdV5); experiment: microbe, parasite or virus in culture; assay type: cell-based; conditions: Human mastadenovirus C, Vero, 72 h, read-out: IC50 Human Adenovirus Type 5
[9] = in vitro; remark: listed apart in the source
[10] = test system: Chikungunya Virus; experiment: microbe, parasite or virus in culture; assay type: cell-based; conditions: Chikungunya virus, read-out: IC50 Chikungunya Virus
[11] = test system: Influenza virus (Flu A, strain A/Puerto Rico/8/34 (H1N1)); experiment: microbe, parasite or virus in culture; assay type: cell-based; conditions: for IC50: unidentified influenza virus, H1N1, MDCK, 48 h, read-out: IC50 Influenza Virus
[12] = CC50 (Herpes Simplex Virus Type 1)

SMILES | IC50 [1] [µM] | CC50 [2, 12] [µM] | CC50 ([2]; CC50 (Human Adenovirus Type 5)) [µM] | CC50 [3] [µM] | IC50 [4] [µM] | CC50 [5] [µM] | CC50 [6] [µM] | IC50 [7] [µM] | IC50 [8] [µM] | CC50 [9] [µM] | IC50 [10] [µM] | IC50 [11] [µM] | activity against HSV-1 in words [1] | activity against influenza virus in words [11]
Nc1nc2c(ncn2COCCO)c(=O)[nH]1 [Acyclovir, reference compound] | 28 ± 4 | > 1130 | – | – | – | – | – | – | – | – | – | – | – | –
O=c1[nH]c(=O)n(C[C@H]2[C@@H]3CC(O)[C@H]2C[C@@H]3Cl)cc1F (stereo partly drawn) [Compound 4a, 1-(((1S,2S,4S,7R)-2-Chloro-5-hydroxybicyclo[2.2.1]heptan-7-yl)methyl)-5-fluoropyrimidine-2,4(1H,3H)-dione] | > 1040 | > 1040 | > 1040 | > 1040 | > 100 | > 100 | > 100 | > 100 | > 1040 | > 100 | > 100 | 173 ± 21 | – | –
O=c1ccn(C[C@@H]2[C@@H]3C[C@H](Cl)[C@H]2C[C@H]3O)c(=O)[nH]1 [Compound 4b, 1-(((1S,2S,4S,5R,7R)-2-Chloro-5-hydroxybicyclo[2.2.1]heptan-7-yl)methyl)pyrimidine-2,4(1H,3H)-dione] | 705 ± 81 | 1110 | > 1110 | > 1110 | > 100 | > 100 | > 100 | > 100 | > 1110 | > 100 | > 100 | 369 ± 26 | – | –
Cc1cn(C[C@H]2[C@@H]3CC(O)[C@H]2C[C@@H]3Cl)c(=O)[nH]c1=O (stereo partly drawn) [Compound 4c, 1-(((1S,2S,4S,7R)-2-Chloro-5-hydroxybicyclo[2.2.1]heptan-7-yl)methyl)-5-methylpyrimidine-2,4(1H,3H)-dione] | > 1050 | > 1050 | > 1050 | > 1050 | > 100 | > 100 | > 100 | > 100 | > 1050 | > 100 | > 100 | > 1050 | – | –
Nc1ccn(C[C@H]2[C@@H]3CC(O)[C@H]2C[C@@H]3Cl)c(=O)n1 (stereo partly drawn) [Compound 4d, 4-Amino-1-(((1S,2S,4S,7R)-2-chloro-5-hydroxybicyclo[2.2.1]heptan-7-yl)methyl)pyrimidin-2(1H)-one] | 727 ± 77 | > 1110 | > 1110 | > 1110 | > 100 | > 100 | > 100 | > 100 | > 1110 | > 100 | > 100 | 102 ± 12 | ineffective against HSV-1 | active against influenza virus
OC1C[C@H]2[C@H](Cn3cnc4c(Cl)ncnc43)[C@@H]1C[C@@H]2Cl (stereo partly drawn) [Compound 5, (1S,4S,5S,7R)-5-Chloro-7-((6-chloro-9H-purin-9-yl)methyl)bicyclo[2.2.1]heptan-2-ol] | 69 ± 9 | > 830 | > 958 | > 958 | > 100 | > 100 | > 100 | > 100 | > 958 | > 100 | > 100 | 254 ± 14 | active against herpes | –
Nc1ncnc2c1ncn2C[C@H]1[C@@H]2CC(O)[C@H]1C[C@@H]2Cl (stereo partly drawn) [Compound 6a, (1S,4S,5S,7R)-7-((6-Amino-9H-purin-9-yl)methyl)-5-chlorobicyclo[2.2.1]heptan-2-ol] | 102 ± 11 | 975 ± 64 | 977 ± 103 | > 1020 | 71 | > 100 | > 100 | > 100 | > 340 | > 100 | > 100 | 328 ± 29 | – | –
OC1C[C@H]2[C@H](Cn3cnc4c(NC5CC5)ncnc43)[C@@H]1C[C@@H]2Cl (stereo partly drawn) [Compound 6b, (1S,4S,5S,7R)-5-Chloro-7-((6-(cyclopropylamino)-9H-purin-9-yl)methyl)bicyclo[2.2.1]heptan-2-ol] | 599 ± 64 | > 773 | > 899 | 752 ± 44 | > 100 | > 100 | > 100 | > 100 | > 899 | > 100 | > 100 | 419 ± 51 | – | –
OC1C[C@H]2[C@H](Cn3cnc4c(NC5CCCC5)ncnc43)[C@@H]1C[C@@H]2Cl (stereo partly drawn) [Compound 6c, (1S,4S,5S,7R)-5-Chloro-7-((6-(cyclopentylamino)-9H-purin-9-yl)methyl)bicyclo[2.2.1]heptan-2-ol] | 47 ± 6 | 605 ± 42 | 824 ± 91 | 227 ± 19 | 28 ± 16 | > 100 | > 100 | > 100 | > 276 | > 100 | > 100 | > 83 | active against herpes | –
OC1C[C@H]2[C@H](Cn3cnc4c(NC5CCCCC5)ncnc43)[C@@H]1C[C@@H]2Cl (stereo partly drawn) [Compound 6d, (1S,4S,5S,7R)-5-Chloro-7-((6-(cyclohexylamino)-9H-purin-9-yl)methyl)bicyclo[2.2.1]heptan-2-ol] | 21 ± 4 | 521 ± 48 | 697 ± 75 | 42 ± 3 | 28 ± 13 | > 100 | > 100 | > 100 | 123 ± 14 | > 100 | > 100 | > 27 | active against herpes | –
OC[C@@H](Cc1ccccc1)Nc1ncnc2c1ncn2C[C@H]1[C@@H]2CC(O)[C@H]1C[C@@H]2Cl (stereo partly drawn) [Compound 6e, (1S,4S,5S,7R)-5-Chloro-7-((6-(((R)-1-hydroxy-3-phenylpropan-2-yl)amino)-9H-purin-9-yl)methyl)bicyclo[2.2.1]heptan-2-ol] | 380 ± 46 | > 608 | > 701 | 188 ± 22 | > 100 | > 100 | > 100 | > 100 | > 701 | > 100 | > 100 | > 26 | – | –
CN1CCN(c2ncnc3c2ncn3C[C@H]2[C@@H]3CC(O)[C@H]2C[C@@H]3Cl)CC1 (stereo partly drawn) [Compound 6f, (1S,4S,5S,7R)-5-Chloro-7-((6-(4-methylpiperazin-1-yl)-9H-purin-9-yl)methyl)bicyclo[2.2.1]heptan-2-ol] | 28 ± 4 | > 719 | > 796 | > 796 | > 100 | > 100 | > 100 | > 100 | 105 ± 11 | > 100 | > 100 | 241 ± 30 | active against herpes | –
CN1CCN(Nc2ncnc3c2ncn3C[C@H]2[C@@H]3CC(O)[C@H]2C[C@@H]3Cl)CC1 (stereo partly drawn) [Compound 6g, (1S,4S,5S,7R)-5-Chloro-7-((6-((4-methylpiperazin-1-yl)amino)-9H-purin-9-yl)methyl)bicyclo[2.2.1]heptan-2-ol] | 540 ± 32 | > 766 | > 766 | > 766 | > 100 | > 100 | > 100 | > 100 | > 766 | > 100 | > 100 | > 766 | complete loss of virus inhibition | –
CCOC(=O)C1=C[C@@H](OC(CC)CC)[C@H](NC(C)=O)[C@@H](N)C1 [Oseltamivir, reference compound] | – | – | – | > 100 | – | – | – | – | – | – | – | 0.3 ± 0.1 | – | –
